Test results: patent publication US7348178B1, “Recombinant adenoviral vector system” (priority 1994, dated 2008)
Entries after “also recorded” stand apart in the source; their conditions may differ.

Columns and labels:
Assay type in all cases: cell-based, human
uninfected 293 cells = test: Drug cytotoxicity in uninfected 293 cells; conditions: 20 mM 2AP, 48 h posttreatment
[1] = tested on: wild type Ad-infected 293 cells; test: Ad-induced CPE in infected 293 cells, photographed; conditions: wild type Ad 50 PFU per cell, 20 mM 2AP added 2 h post infection, 24 and 48 h
Protocol: FIG. 5. Prevention of adenovirus induced CPE and facilitated cell lysis or loss of metabolic function during expression of late viral genes. Cells were infected at 50 PFU per cell with wild type Ad, and 20 mM 2-aminopurine (2AP) was added to duplicate plates 2 h post infection for up to 48 h. Cells were photographed at 24 and 48 h. […] Late Ad polypeptides can therefore be expressed in this system for the duration of several days without facilitating cell lysis and CPE that would limit their expression.
Ad 300 is a wild type strain 5 isolate (H5wl300) originally purified by H. Ginsberg is available through the ATCC. Ad2 ts1 is described in Chen et al., 1993, J. Virol. 67:3507-3514. 293 cells are human embryonic kidney cell line that express the E1 region of Ad5 (Graham et al., 1977, J. Gen. Virol. 36:59-72). 293 and HeLa cells were cultured in Dulbecco's modified Eagle's medium (DMEM) containing 10% calf serum. Virus stocks were grown and titers were determined on 293 cells. RD (human rhabdosarcoma) cells were obtained from the American Type Culture Collection and grown in DMEM containing 15% fetal bovine serum. 2AP was prepared and used as previously described (Huang & Schneider, 1990, PNAS USA 87:7115-7119). Infections of cells with viruses were typically carried out for 1 h with 50 PFU per cell unless otherwise noted. […]

[2] = tested on: cytokeratin network of 293 cells infected with Ad2 ts1; test: Indirect immunofluorescence of keratin K18 network in Ad2 ts1-infected 293 cells; conditions: Ad ts1 infection at 39.5° C. plus 2AP, fixed 22 h post infection
Protocol: FIG. 6. […] 293 cells were infected with Ad2 ts1 at 4,000 particles per cell, a 25 plaque forming unit (PFU) per cell equivalent, given the high particle/PFU ratio for this mutant, in the presence or absence of 2AP at 32° C. or 39.5° C. […] Cells were fixed and processed for indirect immunofluorescence, using a keratin K18-specific antibody. Cells infected at 32° C. were fixed at 40 h post infection, cells infected at 39.5° C. were fixed at 22 h post infection. By preventing Ad viral proteolysis of keratin K18, viral induced CPE and early cell lysis can be controlled.
Cells were grown on coverslips, fixed with paraformaldehyde, and permeabilized with Triton X-100. Mouse monoclonal antibodies directed against vimentin were purchased from Boehringer Mannheim Biochemicals. A mouse monoclonal antibody specific for keratins K18 (KS-B17.2) and K1, 5 to 8, 10, 11, and 18 (no. 8.13) were from Sigma Chemical Co. Fluorescein isothiocyanate-conjugated rabbit anti-mouse antibodies were purchased from Sigma. Cells were photographed under visible or ultraviolet light using a Zeiss photomicroscope.
Experiments were performed to test whether coupled shutoff of host protein synthesis and cleavage of cytokeratins truly correlates with development of CPE. […] Cells were infected with […] at permissive (32° C.) and restrictive (39.5° C.) temperatures. […]

[3] = tested on: wild type Ad-infected 293 cells; test: [35S]methionine labeling, SDS-PAGE: Ad shutoff of cell protein synthesis
Protocol: FIG. 7. […] Uninfected and wild type Ad-infected 293 cells were labeled with [^35S]methionine at 24 h post infection and duplicate plates were treated with 10 mM 2AP, added 1 to 2 h after infection. Equal amounts of protein from labeled extracts were analyzed by SDS-polyacrylamide gel electrophoresis and fluorographed. Ad late polypeptides correspond to proteins II, III, IV, V, pIV, pVIII, pVI, and IX.
Cells were labeled with [^35S]methionine for 1 to 2 h by using 50 μCi of trans[^35S]methionine (ICN) per ml in DMEM lacking methionine and supplemented with 2% calf serum. Cell extracts were prepared by sonication of washed cells in 10 mM KC1-10 mM Tris (pH 7.4)−1 mM EDTA at 4° C. and cleared of debris by centrifugation at 10,000 rpm equal amounts of protein were analyzed in sodium dodecyl sulfate (SDS)-polyacrylamide gels. Gels were fluorographed and quantitated by densitometry.
293 cells were treated with 2AP for the duration of infection, starting shortly after the addition of virus. Duplicate plates of cells were then labeled with [^35S]methionine, and extracts were analyzed by SDS-polyacrylamide gel electrophoresis (FIG. 7) or photographed at various times after infection for evidence of CPE (see FIG. 5).

SMILES: Nc1ncc2[nH]cnc2n1 [2AP, 2-aminopurine]
- cytotoxicity (uninfected 293 cells): little detectable cytotoxicity
- Ad-induced CPE [1]: largely prevented detectable CPE; also recorded: significantly reduced cytopathic effect; also recorded: only slight CPE
- keratin network integrity [2]: remarkably well preserved
- shutoff of cell protein synthesis / translation ([3]; 10 mM 2AP added 1 to 2 h after infection, labeled 24 h post infection): prevents the shutoff of translation of cellular and early Ad mRNAs; also recorded: prevent Ad shutoff of cell protein synthesis
- levels of cellular polypeptide synthesis and of Ad mRNAs lacking the tripartite leader ([3]; 2AP-treated infected 293 cells): significantly elevated
